Test results published in patent US20150175666A1, “PEPTIDES DERIVED FROM HIV GP41 FOR TREATING T-CELL MEDIATED PATHOLOGIES” (Yeda Research and Development Co. Ltd., priority 2012, published 2015).
Where two headings read alike, the source gives them in different places. Square brackets hold non-standard residues; d marks the D form. Ends that are not written are not given here. rhodamine = not defined here

Key:
[1] = test system: MOG35-55-specific murine line T cells (mMOG35-55 T-cells)
[2] = test system: T-cell lymphocytes derived from mice spleen cells; experiment: Binding of fluorescently labeled peptides to spleen-derived lymphocytes; assay type: cell-based
Source text: Further, the T-cell binding affinity of peptides having the amino acid sequence of […] (SEQ ID NO:2 and 11; all L- and all D-amino acids, respectively) was examined. […] Spleen derived B cell lymphocytes were used as a control.

[3] = test system: encephalitogenic MOG35-55 reactive T cells (LNCs); experiment: Ex vivo recall response of lymph node cells from MOG35-55/CFA-immunized mice (proliferation, cytokine ELISA); assay type: in vivo, C57Bl/6J mice
Method: (§1) Mice were subcutaneously immunized with 150 μg MOG35-55 emulsified in complete Freund's adjuvant (CFA) containing 150 μg Mt H37Ra with or without 0.5 mg/kg HIV peptides. Ten days post immunization, draining lymph nodes were removed and cultured in triplicate in the presence or absence of antigen, as previously described. The cultures were incubated for 72 h at 37° C. [3H] Thymidine ([…]) was added for an additional 16 h of incubation and the cultures were then harvested and counted using a Beta Counter. Pro-inflammatory cytokine analysis of IFNγ, IL-12, and TNFα were determined by ELISA, 24 h after cell activation, according to standard protocols from PharMingen (San Diego, Calif.), as described previously
as §1, with “described. […]” for “described. The cultures were incubated for 72 h at 37° C. [3H]”, “described previously. […]” for “described previously”

[4] = test system: TCRα on antigen-stimulated mMOG35-55-specific line T cells; experiment: Co-localization of Rho-labeled peptides with TCRα (confocal microscopy); assay type: cell-based, murine; conditions: activated T cells
Sequence of TCRα on antigen-stimulated mMOG35-55-specific line T cells (P01849 whole entry): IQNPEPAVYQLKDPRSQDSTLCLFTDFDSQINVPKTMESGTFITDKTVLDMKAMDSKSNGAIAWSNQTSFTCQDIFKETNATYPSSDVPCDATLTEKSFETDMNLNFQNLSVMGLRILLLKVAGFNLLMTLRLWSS
Method: FITC excitation was set at 488 nm, with the laser set at 5% power and fluorescence was recorded from 502-525 nm. Rhodamine excitation was set at 559 nm, with the laser set at 1% power and the fluorescence data were collected above 580 nm. Each cell was imaged for TCRα staining (denoted in green) and for peptide staining (denoted in red). Using ImageJ, the images (n=20) were set to binary color and the two revised pictures were used to create a new picture of only what merged between them. The merged picture was divided by the revised red picture to give the percentage of co-localization.
Co-localization of the peptide with the TCR was assessed utilizing confocal microscopy (FIG. 5 D-E). Antigen-stimulated mMOG35-55-specific line T cells were probed with antibodies against TCRα followed by staining with secondary FITC-labeled antibodies (left column) and with the Rho-labeled peptide (SEQ ID NO: 3) (middle column). To evaluate the co-localization between the molecules, a merged image was produced (right column). […] As a control, AMP (SEQ ID NO: 13), a non-related antimicrobial peptide (Papo et al. J Biol Chem. 2005; 280(11):10378-10387), was labeled with rhodamine and its localization on T cells was detected.

TCR (Jurkat T cells) = experiment: Binding of Rho-labeled peptides to T-cell proteins (cross-linking SDS-PAGE, immunoprecipitation); set-up: species or system human; conditions: for fluorescent bands of T-cell proteins bound to Rho-peptide (SDS-PAGE): 1 μM Rho-labeled peptide, formaldehyde cross-linked Jurkat lysate
Sequence of TCR (Jurkat T cells) (P01848 whole entry): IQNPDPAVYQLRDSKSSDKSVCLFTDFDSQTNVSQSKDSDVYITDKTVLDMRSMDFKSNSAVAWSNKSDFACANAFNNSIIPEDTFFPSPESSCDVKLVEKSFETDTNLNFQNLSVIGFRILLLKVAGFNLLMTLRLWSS
Sequence of TCR (Jurkat T cells) (P01850 whole entry, further chain): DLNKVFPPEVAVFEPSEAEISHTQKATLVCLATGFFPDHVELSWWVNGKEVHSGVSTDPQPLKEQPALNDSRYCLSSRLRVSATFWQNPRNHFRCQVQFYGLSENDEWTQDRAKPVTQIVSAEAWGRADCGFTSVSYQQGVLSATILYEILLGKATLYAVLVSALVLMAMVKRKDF
Method: Jurkat T cells (4×10^6) were incubated over night at 37° C. in the presence of 1 μM rhodamine-labeled peptide and lysed. The lysate was then incubated overnight with TCRα or GFP antibodies (2 μg) following 2 hours of incubation with protein G-plus Agarose beads (Santa Cruz Biotechnology Inc.). Next, the beads were washed with lysis buffer and boiled for 10 minutes; the protein supernatant was then run in a 12% SDS-PAGE. The presence of coimmunoprecipitated peptide was detected by the Typhoon 9400 variable mode imager.
Jurkat T cells (4×10^6) were incubated over night at 37° C. in the presence of 1 μM rhodamine-labeled pep6 (SEQ ID NO:3) and its mutant control peptide. Next, the cells were washed with PBS, crosslinked with 1% formaldehyde and after 10 minutes a 125 mM glycine solution was added to stop the reaction. Formaldehyde is a well known cross-linking agent used in the characterization of protein-protein interactions. The cells were lysed for 30 minutes on ice in a 300 μl lysis buffer followed by a sonication step. Insoluble material was removed by centrifugation at 3000×g for 4 min at 4° C. The proteins were resolved by 12% SDS-PAGE and proteins bound to the fluorescently labeled peptide were detected by the Typhoon 9400 variable mode imager (Amersham Biosciences). Excitation was set at 532 nm, and fluorescence emission was collected by a TAMRA filter (580 nm±30 nm) at 100 μm resolution and 600 volts. The protein loading amount was confirmed by Western blot to actin.
To investigate the interaction of the peptide with the TCR, 1 μM fluorescently labeled Rho-peptides were incubated with Jurkat T cells and then cross-linked with formaldehyde to maintain the interaction with their target proteins. The cross-linked T-cell lysate was resolved by SDS-PAGE and proteins bound to Rho-peptides were detected by the fluorescence of rhodamine (FIG. 5B). […] Western blot for actin was used to assure equal loading. […] Bound proteins were separated by SDS-PAGE and analyzed for the presence of the fluorescently-labeled peptides.

[5] = target: T1, core peptide of TMD from TCRα, CP (GLRILLLKV; SEQ ID NO: 14) (Mus musculus, UniProt P01849); experiment: Fluorescent measurements of NBD-labeled core peptide of TCRα TMD in LUV; assay type: binding; conditions: PC:Chol LUV, sequential doses
T1 construct: termed CP (GLRILLLKV); made in house
Method: The fluorescence experiments were performed using NBD-labeled core peptides of TCRα (NBD-CP). Fluorescence spectra were obtained at room temperature, with excitation set at 467 nm (10 nm slit) and the emission scan at 500-600 nm (10 nm slits). In a typical experiment, the NBD-CP was first added from a stock solution in DMSO (final concentration of 0.1 μM and a maximum of 0.25% (v/v) DMSO) to a dispersion of PC:Chol LUV (200 μM) in PBS. This was followed by the addition of unlabeled HIV peptides in several sequential doses ranging from 2.5×10-3 μM to 0.4 μM. Fluorescence spectra were obtained before and after the addition of unlabeled HIV peptides. The fluorescence values were corrected by subtracting the corresponding blank (buffer with the same vesicle concentration).
The TCR complex's TMD helices mediate receptor activation through the interactions between basic and acidic residues. […] To investigate this possibility, we utilized NBD fluorescence, which is sensitive to the membrane surroundings; its emission intensity is increased via membrane insertion (Rapaport et al. Embo J. 1995; 14(22):5524-5531). […] Their initial fluorescence emission spectra were first measured in the presence of LUVs alone and then in the presence of several sequential doses of unlabeled peptide and its mutants (SEQ ID NO: 3, 9 and 10) (FIG. 5H).

[6] = MOG35-55 and APCs, peptides 2.5-20 μM

Question: Which IC50 [1] does the source give for “WNHTTWMEWD-NH2 [SHORT PEP 6, WNHTTWMEWD]” here?
Answer: 5 µM

Question: What about the “inhibition of T-cell proliferation (potency in words)” value (“inhibition of T-cell proliferation” below) [1] of the same molecule?
Answer: still exhibited potent activity

Question: What about the “binding to T-cell lymphocytes versus B cell lymphocytes” value [2] of the same molecule?
Answer: preferably bind T-cell lymphocytes

Question: And the “ex vivo recall proliferative response of LNCs to MOG35-55” value ([3]; mouse, in vivo)?
Answer: down-regulation

Question: Which “co-localization with TCRα molecules” value [4] does the source give for “Rho-AMP: AMP (SEQ ID NO: 13) labeled with rhodamine (KLKLLKLLKLLKLLK; also: rhodamine label, site not given here)” here?
Answer: found throughout the cell membrane

Question: What does the source list for SNKSLEQIGNHTTGMEGD [SEQ ID NO: 9]?
Answer: fluorescent bands of T-cell proteins bound to Rho-peptide (SDS-PAGE) (TCR (Jurkat T cells)): neither observed; fluorescence emission maxima of NBD-CP upon addition of unlabeled peptide [5]: only a slight increase

Question: Which results are given for “Rho-pep 6: rhodamine N-terminally labeled pep 6 (SEQ ID NO: 3) (rhodamine-SNKSLEQIWNHTTWMEWD-NH2; reading uncertain)”?
Answer: fluorescent bands of T-cell proteins bound to Rho-peptide (SDS-PAGE) (TCR (Jurkat T cells)): only one major fluorescent band; coimmunoprecipitation with TCRα antibodies (TCR (Jurkat T cells); Jurkat T cells, GFP antibody as control): coprecipitated with the TCR

Question: How did the IC50 [1] turn out when “WNASWSNKSLEQIWNHT-NH2 [PEP 8, WNASWSNKSLEQIWNHT]” was run?
Answer: 15 µM

Question: How did the “binding to T-cell lymphocytes versus B cell lymphocytes” value [2] turn out when “WNHTTWMEWD ([dW][dN][dH][dT][dT][dW][dM][dE][dW][dD]) [SEQ ID NO: 11]” was run?
Answer: preferably bind T-cell lymphocytes

Question: What about the “ex vivo recall proliferative response of LNCs to MOG35-55” value ([3]; 0.5 mg/kg peptide, day 10 post immunization) of the same molecule?
Answer: down-regulation

Question: With “TTAVPWNASWSNKSLEQI-NH2 [PEP 1, TTAVPWNASWSNKSLEQI]” as the molecule, how does the IC50 [1] read?
Answer: > 40 µM

Question: What about the “inhibition of T-cell proliferation” value [1, 6] of the same molecule?
Answer: not active

Question: Which IC50 [1] does the source give for `CC[C@H](C)[C@H](NC(=O)[C@H](CCC(N)=O)NC(=O)[C@H](CCC(=O)O)NC(=O)[C@H](CC(C)C)NC(=O)[C@H](CO)NC(=O)[C@H](CCCCN)NC(=O)[C@H](CC(N)=O)NC(=O)[C@H](N)CO)C(=O)N[C@@H](Cc1c[nH]c2ccccc12)C(=O)N[C@@H](CC(N)=O)C(=O)N[C@@H](Cc1c[nH]cn1)C(=O)N[C@H](C(=O)N[C@H](C(=O)N[C@@H](Cc1c[nH]c2ccccc12)C(=O)N[C@@H](CCSC)C(=O)N[C@@H](CCC(=O)O)C(=O)N[C@@H](Cc1c[nH]c2ccccc12)C(=O)N[C@H](CC(=O)O)C(N)=O)[C@@H](C)O)[C@@H](C)O` [D-PEP 6, SNKSLEQIWNHTTWMEWD] here?
Answer: 3 µM

Question: For “LQARILAVERYLKDQQL [ISU, LQARILAVERYLKDQQL, reference compound]”, which IC50 [1] is on record?
Answer: 15 µM

Question: With SNKSLEQIWNHTTWMGWG [SEQ ID NO: 10] as the molecule, how does the “fluorescence emission maxima of NBD-CP upon addition of unlabeled peptide” value [5] read?
Answer: only a slight increase

Question: “EQIWNHTTWMEWDREINN-NH2 [SHIFTED PEP 6, EQIWNHTTWMEWDREINN]” was tested. Which IC50 [1] did it give?
Answer: 10 µM

Question: And the “inhibition of T-cell proliferation” value [1, 6]?
Answer: still exhibited potent activity
